From EP2319525A1, “Composition for treating insulin resistance” (Universitätsklinikum Hamburg-Eppendorf, priority 2009, dated 2011)
Side chains are listed from the residue outwards. Peptide text beside a SMILES is read from it. * marks the point of attachment. Nicotinoyl = O=C(c1cccnc1)*; Cbz = O=C(OCc1ccccc1)*

How the values were obtained:
Type in all cases: cell-based, rodent
L6 myotubes [1] = assay: Uptake of H-3-labeled 2-Deoxy-D-glucose in differentiated L6 myotubes, short-term incubation (20 min + 10 min); details: CGP-42112A 10^-8 mol/L, alone and in combination with losartan 10^-7 mol/L
Description: The data presented below were generated in the rodent myoblast cell line L6 (ATCC #CRL-1458). […] L6 myotubes express both the AT-1 and the AT-2 receptor at relevant levels making these cells an ideal model to test the interference of both receptors with basal and insulin-mediated glucose uptake. L6 myoblasts were maintained as proliferating myoblasts in DMEM high glucose medium supplemented with 10% FCS, 4 mM L-glutamine, 1 mM pyruvate at 37°C in the presence of 5% CO2. The seeding density used for the experiments was 2 x 10^4 cells/cm^2 on 1% gelatincoated dishes. To induce differentiation of myoblasts into myotubes, 90-100% confluent cultures (cultured on standard 6-well plates) were switched to DMEM supplemented with 2% adult horse serum. […] The uptake of H-3-labeled 2-Deoxy-D-glucose (GE Healthcare Biosciences), which cannot undergo further glycolysis, was measured as follows: • H-3-labeled 2-Deoxy-D-glucose uptake in the differentiated myotubes was analysed as described previously ([…] et al., Diabetologia (2005); 48 (1) :132-9) with minor modifications. […] Cell lysates were transferred to scintillation vials for radioactivity counting. Non-specific uptake was determined in the presence of cytochalasin B (10 μmol/L) and was subtracted from all values. […] The uptake of H-3-labeled 2-Deoxy-D-glucose was measured as described in Example 1 above.

L6 myotubes [2] = assay: as above
Description: (§1) The data presented below were generated in the rodent myoblast cell line L6 (ATCC #CRL-1458). […] L6 myotubes express both the AT-1 and the AT-2 receptor at relevant levels making these cells an ideal model to test the interference of both receptors with basal and insulin-mediated glucose uptake. L6 myoblasts were maintained as proliferating myoblasts in DMEM high glucose medium supplemented with 10% FCS, 4 mM L-glutamine, 1 mM pyruvate at 37°C in the presence of 5% CO2. The seeding density used for the experiments was 2 x 10^4 cells/cm^2 on 1% gelatincoated dishes. To induce differentiation of myoblasts into myotubes, 90-100% confluent cultures (cultured on standard 6-well plates) were switched to DMEM supplemented with 2% adult horse serum. Myoblast growth and myotube formation were examined using phase-contrast microscopy. The medium was changed every 2 days, and differentiation was allowed to continue for 10 days before the experimentation period.
(§2) L6 myotubes (n=9-12) cultured as described in example 1 were incubated either with angiotensin II (10^-7 mol/l), with a combination of angiotensin II (10^-7 mol/l) and AT-1 receptor blocker losartan (10^-7 mol/L), or with a combination of angiotensin II (10^-7 mol/l), losartan (10^-7 mol/L) and AT-2 receptor blocker PD 123319 (10^-7 mol/L). The uptake of H-3-labeled 2-Deoxy-D-glucose (GE Healthcare Biosciences), which cannot undergo further glycolysis, was measured as follows: • H-3-labeled 2-Deoxy-D-glucose uptake in the differentiated myotubes was analysed as described previously (Ceddia et al., Diabetologia (2005); 48 (1) :132-9) with minor modifications. Differentiated myotubes were serum-starved overnight in DMEM containing 1% glucose before being incubated with angiotensin II, the AT-1 receptor blocker losartan, and/or the AT-2 receptor blocker PD123319. […] Cell lysates were transferred to scintillation vials for radioactivity counting. Non-specific uptake was determined in the presence of cytochalasin B (10 µmol/L) and was subtracted from all values. […]

L6 myotubes [3] = assay: Long-term (24 hours) stimulation: basal and insulin-mediated uptake of H-3-labeled 2-Deoxy-D-glucose in L6 myotubes
Description: as §1, §2

[4] = PD 123319 10^-7 mol/L added to angiotensin II 10^-7 mol/L + losartan 10^-7 mol/L

For `CC[C@H](C)[C@H](NC(=O)[C@@H]1CCCN1C(=O)[C@H](Cc1c[nH]cn1)NC(=O)[C@H](CCCCNC(=O)[C@H](CCCNC(=N)N)NC(=O)OCc1ccccc1)NC(=O)[C@H](Cc1ccc(O)cc1)NC(=O)c1cccnc1)C(=O)O` [CGP-42112A] (Nicotinoyl-YK([Arg-Cbz])HPI-OH), the “glucose uptake compared with the effect of angiotensin II” value (L6 myotubes [1]) was “mimicked”.

In the case of `Cc1cc(Cn2cnc3c2CC(C(=O)O)N(C(=O)C(c2ccccc2)c2ccccc2)C3)ccc1N(C)C` (stereo not shown) [PD123319], the “effect on the CGP-42112A-induced glucose uptake” value (L6 myotubes [2]; PD 123319 10^-7 mol/L added to CGP-42112A 10^-8 mol/L + losartan 10^-7 mol/L) is reported as “completely blocked”, the “effect on the glucose uptake enhanced by angiotensin II in the presence of losartan” value (L6 myotubes [2]; [4]) is reported as “inhibited” and the “uptake of H-3-labeled 2-Deoxy-D-glucose” value (L6 myotubes [2]; substance alone, 10^-7 mol/L, L6 myotubes, n=9-12) is reported as “did not affect”. For the same molecule, the “effect on the glucose uptake enhanced by angiotensin II in the presence of losartan” value (L6 myotubes [3]; [4]) was “completely absent”.

In the case of `CCCCc1nc(Cl)c(CO)n1Cc1ccc(-c2ccccc2-c2nn[nH]n2)cc1` [losartan], the “basal glucose uptake of L6 myotubes” value (L6 myotubes [3]; losartan 10^-7 mol/L alone) is reported as “induced” and the “insulin-mediated glucose uptake of L6 myotubes” value (L6 myotubes [3]; losartan 10^-7 mol/L alone, insulin 1 µg/ml) is reported as “induced”.
